# According to patent US20090030086A1, “ANTIMICROBIAL AGENTS” (priority 2005, published 2009):
# Like-named read-outs stand apart in the source and are kept apart here.
# Tests used:
# P. acnes NCTC 737 [1] = assay: MIC assay; assay type: cell-based, Propionibacterium acnes; conditions: P. acnes NCTC 737; Wilkins-Chalgren broth pH 6.0, anaerobic, 37° C., 72 hours
# Description: 2. Propionibacterium spp.—the principal propionibacterial strain used in these studies was Propionibacterium acnes NCTC 737.
# (§1) The Propionibacterium spp organisms were cultured and maintained on Wilkins-Chalgren Anaerobe Medium (agar and broth) at pH 6.0; cultures were incubated anaerobically at 37° C. for 72 hours.
# (§2) This is a standard international method for quantitatively assessing the antimicrobial activity of a compound in a liquid medium. The method used a 96-well microtitre plate, capable of holding about 200 μl of liquid per well. […] The culture media were as described above for the relevant test organisms.
# (§3) The wells were inoculated with a liquid suspension of freshly grown micro-organism and incubated under the conditions described above. After incubation, the microtitre plate was examined visually (with the aid of a light box) for cloudiness in each well, which would indicate microbial growth. The MIC value was recorded as the lowest concentration of test compound required to inhibit microbial growth, i.e., the lowest concentration for which the liquid in the well remained clear.
# (§4) The assays were conducted in duplicate and included both negative (culture medium only) and positive (culture medium, diluting solvent and inoculum) controls.
# (§5) MIC, MBC and DDA assays, as described above, were carried out using a range of different benzoquinones and hydroquinones. Supplemented DDA assays, in the presence of salt and lipid, were also conducted.
# P. acnes NCTC 737 [2] = assay: Disc diffusion assay (DDA); assay type: cell-based, Propionibacterium acnes; conditions: P. acnes NCTC 737, unsupplemented agar, 200 μg per disc (2,6-dimethoxy-p-benzoquinone 100 μg)
# Description: as §1
# (§6) A sterile paper disc was impregnated with a sample of the test compound and a minimum of 30 minutes allowed for the solvents to evaporate as far as possible. The disc was then placed on an agar plate onto which the test micro-organism had been inoculated. The plate was then incubated under the conditions described above, following which it was examined visually for signs of bacterial growth. […] The diameter of this zone of “inhibition” was measured using a ProtoCOL™ automated zone sizer (Synbiosis, Cambridge, UK).
# (§7) The area of the zone of inhibition was calculated from the measured zone diameter (D) using the formula π(D/2)^2.
# (§8) For most DDA assays, 200 μg of each compound was loaded onto each disc.
# S. aureus ATCC 29213 [3] = assay: MBC assay; assay type: cell-based, Staphylococcus aureus
# Description: (§9) The staphylococci and enterococci were cultured and maintained on Mueller-Hinton Medium (agar and broth) at pH 7.2; they were incubated aerobically at 37° C. for 24 hours.
# (§10) This assay, normally carried out after an MIC assay, determines the minimum concentration of a compound that is lethal to the micro-organism being tested.
# (§11) These samples were then individually sub-cultured on non-selective agar medium, under the incubation conditions described above. Following incubation they were examined visually for bacterial growth.
# (§12) The following experiments all used S. aureus ATCC 29213 as the test organism. MIC, MBC and DDA assays, as described above, were carried out using a range of different benzoquinones and hydroquinones. Supplemented DDA assays, in the presence of salt, lipid and blood, were also conducted.
# P. acnes NCTC 737 [4] = assay: MBC assay; assay type: cell-based, Propionibacterium acnes; conditions: P. acnes NCTC 737
# Description: as §1, §10, §11, §5
# S. aureus ATCC 29213 [5] = assay: Disc diffusion assay (DDA); assay type: cell-based, Staphylococcus aureus; conditions: for zone of inhibition at 200 µg/disc: Staphylococcus aureus
# Description: as §9, §6, §7, §8
# S. aureus ATCC 29213 [6] = assay: MIC assay; assay type: cell-based, Staphylococcus aureus
# Description: 1. Staphylococcus aureus—the principal staphylococcal test micro-organism used in these studies was Staphylococcus aureus ATCC 29213. This strain is the one recommended for QC/QA purposes in Minimum Inhibitory Concentration (MIC) assays by the US Clinical and Laboratory Standards Institute (formerly the NCCLS), an FDA-recognised body.
# as §9, §2, §3, §4, §12
# S. aureus ATCC 29213 [7] = assay: Supplemented disc diffusion assay; assay type: cell-based, Staphylococcus aureus; conditions: for zone of inhibition at 200 µg/disc: Staphylococcus aureus, ATCC29213, 24 h
# Description: as §9, §6
# (§13) Performance under these conditions can provide a more reliable indication of activity on topical application. For assays conducted using S. aureus strains, the supplements were defibrinated horse blood (5% v/v), lipid (Tween™ 80 at 1% v/v) and sodium chloride (100 mM). For those using Propionibacterium spp. strains, the supplements were lipid (Tween™ 80 at 1% v/v) and sodium chloride (100 mM).
# as §12, §8
# P. acnes NCTC 737 [8] = assay: Supplemented disc diffusion assay; assay type: cell-based, Propionibacterium acnes; conditions: P. acnes NCTC 737; activity increases in the presence of lipid
# Description: as §1, §6, §13, §5, §8
# [9] = S. aureus ATCC 29213, unsupplemented agar, 200 μg per disc (thymoquinone 50 μg, 2,6-dimethoxy-p-benzoquinone 100 μg)
# [10] = S. aureus ATCC 29213, Mueller-Hinton broth pH 7.2, aerobic, 37° C., 24 hours
# [11] = Staphylococcus aureus, ATCC29213, read-out: MBC
# [12] = ATCC29213, S. aureus ATCC 29213, unsupplemented agar, 200 μg per disc (thymoquinone 50 μg, 2,6-dimethoxy-p-benzoquinone 100 μg), read-out: DDA (diameter of zone of inhibition)
# [13] = S. aureus ATCC 29213, Tween 80 at 1% v/v, 200 μg per disc (thymoquinone 50 μg, 2,6-dimethoxy-p-benzoquinone 100 μg), read-out: DDA + lipid
# [14] = S. aureus ATCC 29213, defibrinated horse blood 5% v/v, 200 μg per disc (thymoquinone 50 μg, 2,6-dimethoxy-p-benzoquinone 100 μg), read-out: DDA + blood
# [15] = S. aureus ATCC 29213, sodium chloride 100 mM, 200 μg per disc (thymoquinone 50 μg, 2,6-dimethoxy-p-benzoquinone 100 μg), read-out: DDA + salt
# [16] = Staphylococcus aureus, ATCC29213, S. aureus ATCC 29213, Mueller-Hinton broth pH 7.2, aerobic, 37° C., 24 hours, read-out: MIC
# [17] = S. aureus ATCC 29213, Tween 80 at 1% v/v, 200 μg per disc (thymoquinone 50 μg, 2,6-dimethoxy-p-benzoquinone 100 μg)
# [18] = S. aureus ATCC 29213, defibrinated horse blood 5% v/v, 200 μg per disc (thymoquinone 50 μg, 2,6-dimethoxy-p-benzoquinone 100 μg)
# [19] = S. aureus ATCC 29213, sodium chloride 100 mM, 200 μg per disc (thymoquinone 50 μg, 2,6-dimethoxy-p-benzoquinone 100 μg)
Structure (SMILES),MIC/MBC ratio (S. aureus ATCC 29213 [3]),MBC (S. aureus ATCC 29213 [3]),DDA (diameter of zone of inhibition) (S. aureus ATCC 29213 [5]; [9]),MIC (S. aureus ATCC 29213 [6]; [10]),zone of inhibition at 200 µg/disc (S. aureus ATCC 29213 [5]; [12]),DDA + lipid (S. aureus ATCC 29213 [7]; [17]),DDA + blood (S. aureus ATCC 29213 [7]; [18]),DDA + salt (S. aureus ATCC 29213 [7]; [19]),further results
Oc1ccc(O)c(Br)c1 [2-bromo-p-hydroquinone],1,31.25 µg/mL,20.75 mm,31.25 µg/mL,–,17.43 mm,14.94 mm,18.99 mm,–
"Oc1cc(Cl)c(O)c(Cl)c1 [2,6-dichloro-p-hydroquinone]",1,31.25 µg/mL,16.29 mm,31.25 µg/mL,–,14.32 mm,11.83 mm,16.19 mm,–
Oc1ccc(O)cc1 [p-hydroquinone],1,–,18.94 mm,–,–,–,–,–,–
"CC1=C(C)C(=O)C(C)=C(C)C1=O [duroquinone, 2,3,5,6-tetramethyl-p-benzoquinone]",0.5,–,–,–,–,–,–,–,"MBC (S. aureus ATCC 29213 [3]; Staphylococcus aureus, ATCC29213): 62.5 µg/mL; zone of inhibition at 200 µg/disc (S. aureus ATCC 29213 [5]; ATCC29213, read-out: DDA (diameter of zone of inhibition)): 13.3 mm; zone of inhibition at 200 µg/disc (S. aureus ATCC 29213 [7]; read-out: DDA + blood): 0 mm; zone of inhibition at 200 µg/disc (S. aureus ATCC 29213 [7]; read-out: DDA + lipid): 16.2 mm; zone of inhibition at 200 µg/disc (S. aureus ATCC 29213 [7]; read-out: DDA + salt): 16.5 mm; MIC (S. aureus ATCC 29213 [6]; Staphylococcus aureus, ATCC29213, 24 h, pH 7.2): 31.2 µg/mL"

# More lines, main results first:
MIC/MBC ratio (S. aureus ATCC 29213 [3]),Structure (SMILES),MBC (S. aureus ATCC 29213 [3]),DDA (diameter of zone of inhibition) (S. aureus ATCC 29213 [5]; [9]),MIC (S. aureus ATCC 29213 [6]; [10]),zone of inhibition at 200 µg/disc (S. aureus ATCC 29213 [5]; [12]),DDA + lipid (S. aureus ATCC 29213 [7]; [17]),DDA + blood (S. aureus ATCC 29213 [7]; [18]),DDA + salt (S. aureus ATCC 29213 [7]; [19]),further results
1,"Cc1c(O)ccc(O)c1C [2,3-dimethyl-p-hydroquinone]",7.8 µg/mL,33.41 mm,7.8 µg/mL,–,–,–,–,MIC (P. acnes NCTC 737 [1]): 7.8 µg/mL; DDA (diameter of zone of inhibition) (P. acnes NCTC 737 [2]): 18.75 mm; MIC/MBC ratio (P. acnes NCTC 737 [4]): 0.5
1,Cc1ccc(O)c(O)c1 [4-methylcatechol],–,–,–,18.3 mm,–,–,–,MBC (S. aureus ATCC 29213 [3]; [11]): 31.2 µg/mL; zone of inhibition at 200 µg/disc (S. aureus ATCC 29213 [7]; [13]): 20 mm; zone of inhibition at 200 µg/disc (S. aureus ATCC 29213 [7]; [14]): 0 mm; zone of inhibition at 200 µg/disc (S. aureus ATCC 29213 [7]; [15]): 20.9 mm; MIC (S. aureus ATCC 29213 [6]; [16]): 31.2 µg/mL
0.25,"Cc1cc(O)c(C)c(C)c1O [2,5,6-trimethyl-p-hydroquinone]",31.25 µg/mL,63.40 mm,7.8 µg/mL,–,56.97 mm,0.0 mm,61.63 mm,–
0.5,CC1=CC(=O)C(C(C)C)=CC1=O [thymoquinone],–,–,–,15.6 mm,–,–,–,"zone of inhibition at 200 µg/disc (P. acnes NCTC 737 [2]; Cutibacterium acnes, NCTC737, read-out: DDA (diameter of zone of inhibition)): 27.5 mm; MIC/MBC ratio (P. acnes NCTC 737 [4]): 0.5; effect of lipid on antimicrobial activity (P. acnes NCTC 737 [8]): potentiated"
0.25,"CC(C)(C)C1=CC(=O)C=C(C(C)(C)C)C1=O [2,6-di-t-butyl-p-benzoquinone]",–,–,–,0 mm,–,–,–,MBC (S. aureus ATCC 29213 [3]; [11]): 250 µg/mL; zone of inhibition at 200 µg/disc (S. aureus ATCC 29213 [7]; [13]): 9.37 mm; zone of inhibition at 200 µg/disc (S. aureus ATCC 29213 [7]; [14]): 0 mm; zone of inhibition at 200 µg/disc (S. aureus ATCC 29213 [7]; [15]): 0 mm; MIC (S. aureus ATCC 29213 [6]; [16]): 62.5 µg/mL
